Source: ChEMBL document CHEMBL3351767, “The discovery of Polo-like kinase 4 inhibitors: design and optimization of spiro[cyclopropane-1,3'[3H]indol]-2'(1'H).ones as orally bioavailable antitumor agents” (J Med Chem, 2015)
Values after ≈ are worked out from the molar mass of the structure shown.

How the values were obtained:
MCF7 = test: Cytotoxicity against human MCF7 cells after 5 days by SRB assay; assay type: functional; conditions: MCF7, 120 h
[1] = target: Vascular endothelial growth factor receptor 2 (Homo sapiens, UniProt P35968); test: Inhibition of KDR (unknown origin) by FRET-based homogeneous assay
[2] = Cmax in SCID mouse at 25 mg/kg, po by LCMS/MS method; assay type: ADME, organism-based; parameters: dose 25 mg/kg, route oral; conditions: in vivo
[3] = Cytotoxicity against human SKBR3 cells after 5 days by SRB assay; assay type: functional; conditions: SK-BR-3, 120 h
MDA-MB-231 = test: Cytotoxicity against human MDA-MB-231 cells after 5 days by SRB assay; assay type: functional; conditions: MDA-MB-231, 120 h
[4] = target: T1, Receptor-type tyrosine-protein kinase FLT3 (Homo sapiens, UniProt P36888); test: Inhibition of FLT3 (unknown origin) by FRET-based homogeneous assay
T1 sequence (P36888 whole entry): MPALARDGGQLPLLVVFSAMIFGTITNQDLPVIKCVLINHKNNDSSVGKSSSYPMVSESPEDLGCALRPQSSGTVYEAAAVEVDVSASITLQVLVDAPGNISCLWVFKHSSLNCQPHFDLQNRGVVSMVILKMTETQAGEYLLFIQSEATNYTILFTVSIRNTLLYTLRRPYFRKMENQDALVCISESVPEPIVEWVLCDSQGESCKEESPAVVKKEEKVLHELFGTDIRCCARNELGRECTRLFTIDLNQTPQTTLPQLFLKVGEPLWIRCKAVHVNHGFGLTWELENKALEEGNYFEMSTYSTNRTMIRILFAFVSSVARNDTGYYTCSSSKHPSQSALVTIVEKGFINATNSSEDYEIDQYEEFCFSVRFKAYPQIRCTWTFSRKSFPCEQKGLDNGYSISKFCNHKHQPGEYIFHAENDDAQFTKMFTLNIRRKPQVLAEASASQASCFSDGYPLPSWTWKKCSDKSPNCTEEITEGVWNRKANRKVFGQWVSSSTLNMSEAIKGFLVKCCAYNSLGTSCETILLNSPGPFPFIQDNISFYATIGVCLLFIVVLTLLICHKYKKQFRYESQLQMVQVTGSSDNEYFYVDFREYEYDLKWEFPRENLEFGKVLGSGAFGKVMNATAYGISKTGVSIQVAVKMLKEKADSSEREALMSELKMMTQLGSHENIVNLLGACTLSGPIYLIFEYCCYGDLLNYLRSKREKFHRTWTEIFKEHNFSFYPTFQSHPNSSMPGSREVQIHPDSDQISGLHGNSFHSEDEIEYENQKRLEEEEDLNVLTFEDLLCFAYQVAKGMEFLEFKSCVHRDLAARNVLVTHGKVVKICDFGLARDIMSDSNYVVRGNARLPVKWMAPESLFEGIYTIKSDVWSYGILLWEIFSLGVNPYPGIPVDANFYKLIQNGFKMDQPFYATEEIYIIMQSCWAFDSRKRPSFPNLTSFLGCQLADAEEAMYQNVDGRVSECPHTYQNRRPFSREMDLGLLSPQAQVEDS

Cytochrome P450 2D6 = Cytochrome P450 2D6 (Homo sapiens, UniProt P10635); test: Inhibition of CYP2D6 (unknown origin) using AMMC substrate after 45 mins by fluorescence assay; assay type: ADME
Cytochrome P450 1A2 = target: T2, Cytochrome P450 1A2 (Homo sapiens, UniProt P05177); test: Inhibition of CYP1A2 (unknown origin) using CEC substrate after 15 mins by fluorescence assay; assay type: ADME
T2 sequence (P05177 whole entry): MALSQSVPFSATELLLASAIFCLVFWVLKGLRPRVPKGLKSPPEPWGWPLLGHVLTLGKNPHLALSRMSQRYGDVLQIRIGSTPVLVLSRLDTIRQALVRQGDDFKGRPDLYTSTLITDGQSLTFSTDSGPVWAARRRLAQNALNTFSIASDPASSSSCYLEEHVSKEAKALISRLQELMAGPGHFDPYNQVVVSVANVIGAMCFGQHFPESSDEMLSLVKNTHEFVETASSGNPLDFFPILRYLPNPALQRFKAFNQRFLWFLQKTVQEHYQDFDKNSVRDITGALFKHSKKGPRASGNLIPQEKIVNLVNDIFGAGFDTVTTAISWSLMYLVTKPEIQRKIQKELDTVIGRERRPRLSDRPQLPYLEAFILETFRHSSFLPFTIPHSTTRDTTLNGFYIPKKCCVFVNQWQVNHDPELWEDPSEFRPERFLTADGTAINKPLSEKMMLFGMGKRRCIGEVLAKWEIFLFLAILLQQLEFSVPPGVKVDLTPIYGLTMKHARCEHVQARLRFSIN

Cytochrome P450 2C19 = Cytochrome P450 2C19 (Homo sapiens, UniProt P33261); test: Inhibition of CYP2C19 (unknown origin) using MFC substrate after 30 mins by fluorescence assay; assay type: ADME
[5] = AUC in SCID mouse at 25 mg/kg, po by LCMS/MS method; assay type: ADME, organism-based; parameters: dose 25 mg/kg, route oral; conditions: plasma
MDA-MB-468 = test: Cytotoxicity against human MDA-MB-468 cells after 5 days by SRB assay; assay type: functional; conditions: MDA-MB-468, 120 h
Cytochrome P450 2C9 = Cytochrome P450 2C9 (Homo sapiens, UniProt P11712); test: Inhibition of CYP2C9 (unknown origin) using MFC substrate after 45 mins by fluorescence assay; assay type: ADME
Cytochrome P450 3A4 = Cytochrome P450 3A4 (Homo sapiens, UniProt P08684); test: Inhibition of CYP3A4 (unknown origin) using BFC substrate after 30 mins by fluorescence assay; assay type: ADME
[6] = Half life in mouse liver microsomes at 1 uM in presence of NADPH by LC-MS method; assay type: ADME
[7] = Half life in human liver microsomes at 1 uM in presence of NADPH by LC-MS method; assay type: ADME
[8] = AUC in SCID mouse at 50 mg/kg, ip after 8 hrs by LCMS/MS method; assay type: ADME, organism-based; parameters: time < 8 hr, dose 50 mg/kg, route intraperitoneal; conditions: plasma
[9] = Aqueous solubility at pH 7.4; assay type: physicochemical; conditions: buffer
[10] = Cmax in SCID mouse at 50 mg/kg, ip after 8 hrs by LCMS/MS method; assay type: ADME, organism-based; parameters: dose 50 mg/kg, route intraperitoneal; conditions: in vivo
[11] = Protein binding in plasma (unknown origin); assay type: ADME, cell-free; conditions: read-out: PPB (converted)

Sequence of Vascular endothelial growth factor receptor 2 (P35968 whole entry): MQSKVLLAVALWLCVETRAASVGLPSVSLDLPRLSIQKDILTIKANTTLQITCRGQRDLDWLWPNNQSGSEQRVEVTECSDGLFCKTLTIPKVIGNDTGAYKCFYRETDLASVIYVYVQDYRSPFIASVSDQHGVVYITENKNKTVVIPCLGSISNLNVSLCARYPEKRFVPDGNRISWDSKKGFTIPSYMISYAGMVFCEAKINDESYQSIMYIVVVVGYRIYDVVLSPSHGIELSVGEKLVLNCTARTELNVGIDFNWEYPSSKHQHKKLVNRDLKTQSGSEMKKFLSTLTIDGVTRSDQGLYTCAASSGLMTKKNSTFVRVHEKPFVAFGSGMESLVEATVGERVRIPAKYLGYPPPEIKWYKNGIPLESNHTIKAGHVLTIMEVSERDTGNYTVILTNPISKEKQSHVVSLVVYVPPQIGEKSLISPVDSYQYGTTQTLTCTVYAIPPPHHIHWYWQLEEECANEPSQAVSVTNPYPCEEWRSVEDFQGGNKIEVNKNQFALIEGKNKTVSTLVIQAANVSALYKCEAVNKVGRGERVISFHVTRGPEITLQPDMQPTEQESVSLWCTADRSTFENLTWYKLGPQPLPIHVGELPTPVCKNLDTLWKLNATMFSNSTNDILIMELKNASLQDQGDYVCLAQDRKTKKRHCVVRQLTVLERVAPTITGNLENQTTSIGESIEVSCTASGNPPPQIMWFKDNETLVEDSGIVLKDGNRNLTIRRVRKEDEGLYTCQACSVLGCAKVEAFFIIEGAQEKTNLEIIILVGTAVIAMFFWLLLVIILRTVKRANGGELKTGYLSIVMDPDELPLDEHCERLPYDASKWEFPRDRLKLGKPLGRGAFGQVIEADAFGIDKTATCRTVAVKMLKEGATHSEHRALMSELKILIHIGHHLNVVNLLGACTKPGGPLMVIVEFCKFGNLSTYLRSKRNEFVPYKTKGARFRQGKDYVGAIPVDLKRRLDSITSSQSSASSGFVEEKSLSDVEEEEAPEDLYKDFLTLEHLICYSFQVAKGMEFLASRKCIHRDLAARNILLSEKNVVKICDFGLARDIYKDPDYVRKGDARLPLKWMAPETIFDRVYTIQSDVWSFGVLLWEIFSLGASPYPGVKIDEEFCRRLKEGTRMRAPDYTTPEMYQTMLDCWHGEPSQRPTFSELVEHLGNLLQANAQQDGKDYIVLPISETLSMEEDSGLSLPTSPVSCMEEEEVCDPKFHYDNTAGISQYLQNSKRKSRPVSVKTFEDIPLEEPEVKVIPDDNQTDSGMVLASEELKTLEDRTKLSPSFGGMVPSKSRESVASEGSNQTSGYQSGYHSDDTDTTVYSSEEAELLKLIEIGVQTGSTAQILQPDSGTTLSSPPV
Sequence of Cytochrome P450 2C9 (P11712 whole entry): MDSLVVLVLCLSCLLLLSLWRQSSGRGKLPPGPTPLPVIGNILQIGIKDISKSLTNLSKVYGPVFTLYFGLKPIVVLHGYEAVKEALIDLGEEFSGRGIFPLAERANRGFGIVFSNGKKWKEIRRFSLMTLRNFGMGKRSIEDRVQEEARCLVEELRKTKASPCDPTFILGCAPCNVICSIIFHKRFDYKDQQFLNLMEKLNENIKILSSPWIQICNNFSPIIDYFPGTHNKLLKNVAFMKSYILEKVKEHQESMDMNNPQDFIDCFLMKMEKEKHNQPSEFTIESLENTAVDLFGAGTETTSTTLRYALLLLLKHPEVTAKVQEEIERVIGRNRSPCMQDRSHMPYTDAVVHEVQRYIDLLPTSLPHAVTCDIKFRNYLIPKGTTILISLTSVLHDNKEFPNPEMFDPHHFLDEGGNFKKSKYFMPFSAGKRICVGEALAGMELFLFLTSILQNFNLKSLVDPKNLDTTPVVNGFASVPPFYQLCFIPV
Sequence of Cytochrome P450 2D6 (P10635 whole entry): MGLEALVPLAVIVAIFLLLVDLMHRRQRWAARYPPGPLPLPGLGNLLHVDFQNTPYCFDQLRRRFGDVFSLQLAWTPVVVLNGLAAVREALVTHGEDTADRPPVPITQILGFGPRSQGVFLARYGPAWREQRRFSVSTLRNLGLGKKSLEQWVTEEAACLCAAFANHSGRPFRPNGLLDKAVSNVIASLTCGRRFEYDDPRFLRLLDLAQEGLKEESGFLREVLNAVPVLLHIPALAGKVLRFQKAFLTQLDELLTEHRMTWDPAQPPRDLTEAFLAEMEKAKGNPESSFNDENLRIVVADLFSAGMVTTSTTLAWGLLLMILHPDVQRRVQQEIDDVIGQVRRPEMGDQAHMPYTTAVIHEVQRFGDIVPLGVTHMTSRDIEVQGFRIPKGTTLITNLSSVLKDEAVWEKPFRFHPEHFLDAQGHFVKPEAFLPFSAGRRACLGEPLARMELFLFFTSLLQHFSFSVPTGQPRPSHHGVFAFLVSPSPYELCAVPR
Sequence of Cytochrome P450 3A4 (P08684 whole entry): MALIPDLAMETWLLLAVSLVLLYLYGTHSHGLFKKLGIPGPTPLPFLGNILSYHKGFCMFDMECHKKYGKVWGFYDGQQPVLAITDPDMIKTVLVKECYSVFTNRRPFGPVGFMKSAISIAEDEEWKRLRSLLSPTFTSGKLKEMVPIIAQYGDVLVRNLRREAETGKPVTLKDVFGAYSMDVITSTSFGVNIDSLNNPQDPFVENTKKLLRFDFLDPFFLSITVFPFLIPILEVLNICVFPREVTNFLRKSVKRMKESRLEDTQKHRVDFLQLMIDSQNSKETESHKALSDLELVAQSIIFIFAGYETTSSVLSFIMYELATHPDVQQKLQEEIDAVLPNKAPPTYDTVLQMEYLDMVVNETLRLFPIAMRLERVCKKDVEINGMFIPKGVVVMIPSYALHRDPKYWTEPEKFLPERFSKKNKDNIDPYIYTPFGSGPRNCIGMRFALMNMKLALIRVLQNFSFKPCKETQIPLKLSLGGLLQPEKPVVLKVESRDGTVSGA
Sequence of Cytochrome P450 2C19 (P33261 whole entry): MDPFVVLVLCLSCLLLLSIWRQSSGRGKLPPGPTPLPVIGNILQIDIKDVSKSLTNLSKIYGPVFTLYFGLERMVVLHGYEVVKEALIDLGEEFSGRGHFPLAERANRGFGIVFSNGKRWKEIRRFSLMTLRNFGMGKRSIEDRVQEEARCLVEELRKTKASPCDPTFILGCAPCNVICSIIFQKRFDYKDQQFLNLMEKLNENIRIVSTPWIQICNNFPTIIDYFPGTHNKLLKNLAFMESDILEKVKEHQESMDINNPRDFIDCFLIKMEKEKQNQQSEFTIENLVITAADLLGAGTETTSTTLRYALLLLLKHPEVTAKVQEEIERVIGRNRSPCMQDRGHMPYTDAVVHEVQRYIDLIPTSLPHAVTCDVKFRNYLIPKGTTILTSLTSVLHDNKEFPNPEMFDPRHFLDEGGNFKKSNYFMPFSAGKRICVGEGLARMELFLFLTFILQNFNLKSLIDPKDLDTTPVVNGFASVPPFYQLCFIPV

| SMILES | GI50 (MCF7) [nM] | IC50 [1] [µM] | Cmax [2] [ng/mL] | GI50 [3] [µM] | GI50 (MDA-MB-231) [µM] | IC50 [4] [µM] | IC50 (Cytochrome P450 2D6) [µM] | IC50 (Cytochrome P450 1A2) [µM] | IC50 (Cytochrome P450 2C19) [µM] | AUC [5] [ng·h/mL] | GI50 (MDA-MB-468) [nM] | IC50 (Cytochrome P450 2C9) [µM] | IC50 (Cytochrome P450 3A4) [µM] | half-life at 1 µM [6] [min] | half-life at 1 µM [7] [min] | AUC at 8 h [8] [ng·h/mL] | solubility [9] [µg/mL] | Cmax [10] [ng/mL] | fraction unbound [11] |
| --- | --- | --- | --- | --- | --- | --- | --- | --- | --- | --- | --- | --- | --- | --- | --- | --- | --- | --- | --- |
| CN1CCN(Cc2ccc(/C=C/c3n[nH]c4cc([C@@H]5C[C@@]56C(=O)Nc5ccccc56)ccc34)cc2)CC1 (relative stereo) | 10 | 0.12 | 190 | 6 | 2.5 | 0.12 | > 10 | > 1 | > 1 | 580 | 10 | > 1 | > 10 |  |  |  |  |  |  |
| O=C1Nc2ccc(F)cc2[C@]12C[C@H]2c1ccc2c(/C=C/c3ccc(CN4CCOCC4)cc3)n[nH]c2c1 | 900 |  | 3700 | 10 | 0.72 |  | > 10 | > 10 | 1 | 7940 | 20 | 0.5 | > 1 |  |  |  |  |  |  |
| CNC(=O)c1ccccc1Sc1ccc2c(/C=C/c3ccccn3)n[nH]c2c1 [AXITINIB] | 2300 |  |  | 4.6 |  |  |  |  |  |  | 2800 |  |  |  |  |  |  |  |  |
| O=C1Nc2ccccc2[C@]12C[C@H]2c1ccc2c(/C=C/c3cccnc3)n[nH]c2c1 (relative stereo) | 3600 |  | 37 | 14.7 | 50 |  | > 1 | 0.14 | 0.11 | 93 | 9 | 0.32 | > 1 |  |  |  |  |  |  |
| COc1ccc2c(c1)[C@]1(C[C@H]1c1ccc3c(/C=C/c4ccc(CN5CCOCC5)cc4)n[nH]c3c1)C(=O)N2 (relative stereo) | < 10 | 24 | 1700 | 13.8 | < 0.01 |  | > 1 | > 10 | 2.1 | 4900 | < 10 | 1.4 | > 1 |  |  |  |  |  |  |
| CCc1ccc2c(c1)[C@]1(C[C@H]1c1ccc3c(/C=C/c4ccc(CN(C)C)cc4)n[nH]c3c1)C(=O)N2 (relative stereo) | 240 |  |  | 2 | 2 |  |  |  |  |  | 10 |  |  |  |  |  |  |  |  |
| CN(C)Cc1ccc(/C=C/c2n[nH]c3cc([C@@H]4C[C@@]45C(=O)Nc4ccc(F)cc45)ccc23)cc1 (relative stereo) | 100 |  |  | 2.2 | 0.55 |  |  |  |  |  | 10 |  |  |  |  |  |  |  |  |
| COc1ccc2c(c1)[C@]1(C[C@H]1c1ccc3c(/C=C/c4ccc(CN5CCCCC5)nc4)n[nH]c3c1)C(=O)N2 (relative stereo) | 0.01 |  | 290 | 9.2 | 3.9 |  |  |  | 0.6 | 740 | 0.02 | 1.4 |  |  |  |  |  |  |  |
| O=C1Nc2ccccc2/C1=C/c1ccc2cn[nH]c2c1 | 5300 | 2.5 |  |  |  | 0.14 | > 1 | 0.05 | 0.21 |  | 4600 | 0.5 | 10 | 5 | 54 | 61 | 0.7 (≈ 2.68 µM) | 11 | < 0.001 |
| O=C1Nc2ccccc2[C@]12C[C@H]2c1ccc2c(/C=C/c3ccc(CN4CCCCC4)nc3)n[nH]c2c1 (relative stereo) | 0.01 |  |  | 3.4 | 35.8 |  |  |  |  |  | 0.4 |  |  |  |  |  |  |  |  |
| Cc1ccc2c(c1)[C@]1(C[C@H]1c1ccc3c(/C=C/c4ccc(CN(C)C)cc4)n[nH]c3c1)C(=O)N2 (relative stereo) | 0.01 |  |  | 3.4 | 2.8 |  |  |  |  |  | 0.05 |  |  |  |  |  |  |  |  |
| Cc1ccc2c(c1)[C@]1(C[C@H]1c1ccc3c(/C=C/c4ccc(CN5CCOCC5)cc4)n[nH]c3c1)C(=O)N2 (relative stereo) | 80 |  |  | 8.8 | 0.56 |  |  |  |  |  | 30 |  |  |  |  |  |  |  |  |
| CN(C)Cc1ccc(/C=C/c2n[nH]c3cc([C@@H]4C[C@@]45C(=O)Nc4ccc(OC(F)F)cc45)ccc23)cc1 (relative stereo) | 25 | 4.9 |  | 1.6 | 4.8 | 0.032 |  |  |  |  | 5 |  |  |  |  |  |  |  |  |
| O=C1Nc2ccccc2[C@]12C[C@H]2c1ccc2c(/C=C/c3ccc(CN4CCCC4)cc3)n[nH]c2c1 (relative stereo) | 50 |  |  | 4.1 | 1.9 |  |  |  |  |  | < 10 |  |  |  |  |  |  |  |  |
| COc1ccc2c(c1)[C@]1(C[C@H]1c1ccc3c(/C=C/c4cc(F)c(CN5CCOCC5)c(F)c4)n[nH]c3c1)C(=O)N2 (relative stereo) | 50 | 7.9 |  | 3.7 | 1.7 |  |  |  |  |  | 60 |  |  |  |  |  |  |  |  |
| O=C1Nc2ccccc2[C@]12C[C@H]2c1ccc2c(/C=C/c3ccc(CN4CCOCC4)cc3)n[nH]c2c1 (relative stereo) | 10 | 1.4 | 1800 | 11.3 | < 0.01 |  | > 10 | > 10 | 1.8 | 4300 | 10 | 1.4 | > 1 |  |  |  |  |  |  |
| COc1ccc2c(c1)[C@]1(C[C@H]1c1ccc3c(/C=C/c4ccc(N5CCN(C)CC5)nc4)n[nH]c3c1)C(=O)N2 (relative stereo) | 10 | 2 |  | 13.4 | 0.01 |  | > 10 | > 10 | 1.6 |  | 6 | 1.6 | 2.1 | 9 | 16 | 450 | 0.19 (≈ 0.375 µM) | 200 |  |
| Cc1ccc(/C=C/c2n[nH]c3cc([C@@H]4C[C@@]45C(=O)Nc4ccccc45)ccc23)c(C)n1 (relative stereo) | 6800 | 2.1 |  | 50 | > 50 | 0.059 |  |  |  |  | 70 |  |  |  |  |  |  |  |  |
| Cc1ccc(/C=C/c2n[nH]c3cc([C@@H]4C[C@@]45C(=O)Nc4ccccc45)ccc23)cn1 | 280 |  |  | 7.6 | 3.8 |  |  |  |  |  | 140 |  |  |  |  |  |  |  |  |
| CN(C)Cc1ccc(/C=C/c2n[nH]c3cc([C@@H]4C[C@@]45C(=O)Nc4ccc(Cl)cc45)ccc23)cc1 (relative stereo) | 0.01 |  |  | 3.5 | 0.93 |  |  |  |  |  | 0.06 |  |  |  |  |  |  |  |  |
| O=C1Nc2ccccc2[C@]12C[C@H]2c1ccc2c(/C=C/c3ccc(CN4CCCCC4)cc3)n[nH]c2c1 (relative stereo) | 600 | 0.012 |  | 0.8 | 0.9 |  |  |  |  |  | 500 |  |  |  |  |  |  |  |  |
